“And” between values parts separate entries of the source, which are not always exact repeats. Equal entries are not always repeated.
Assay: NHP health screening: hematology (CBC)
Type: in vivo, rhesus macaques (Macaca mulatta)
[1] = Mean of treated female rhesus macaques, blood sample of 2018-03-26/27
[2] = Treated rhesus macaques, individual animal, blood sample of 2018-03-26/27
[3] = drug-treatment phase, returned to pre-study values by the final blood draw
[4] = treated female macaques, mid-dosing bleed, Mean
[5] = treated female macaques, post-dosing bleed, Mean

Protocol: Under light-anesthesia/sedation, peripheral blood samples were collected from each animal prior to treatment and at 7 time points following. Blood analysis (CBC and serum chemistry assays) and physical exams to evaluate the health of the study animals were performed on each animal prior to the beginning of the study and also at three time points during the treatment protocol (see Supplementary data).

Cc1c(C(=O)N[C@H](C(=O)OCC2CCOCC2)C(C)C)ccc2c1B(O)OC2 [AN15368]
Baso, Mean [1]: 0.01 10^3/µL | Eos, Mean [1]: 0.09056 10^3/µL | Hct, Mean [1]: 42.7278% | Hgb, Mean [1]: 13.2278 G/Dl | Lymp, Mean [1]: 2.112 10^3/µL | Mch, Mean [1]: 22.4444 Pgs | Mchc, Mean [1]: 30.9611 G/Dl | Mcv, Mean [1]: 72.4667 fL | Mono, Mean [1]: 0.2806 10^3/µL | Mpv, Mean [1]: 7.333 fL | Neut, Mean [1]: 3.369 10^3/µL | Plt, Mean [1]: 334.722 10^3/µL | Rbc, Mean [1]: 5.902 10^6/µL | Rdw, Mean [1]: 12.2111% | Wbc, Mean [1]: 5.862 10^3/µL | Baso [2]: 0.01 10^3/µL and 0 10^3/µL | Eos [2]: 0.24 10^3/µL and 0.09 10^3/µL and 0.02 10^3/µL and 0.17 10^3/µL and 0.16 10^3/µL | Hct [2]: 46.5% and 43.6% and 38.8% and 40.8% and 41.6% | Hgb [2]: 14.6 G/Dl and 13 G/Dl and 11.7 G/Dl and 13.1 G/Dl | Lymp [2]: 2.42 10^3/µL and 2.63 10^3/µL and 1.31 10^3/µL and 3.46 10^3/µL and 2.68 10^3/µL | Mch [2]: 21.8 Pgs and 21.4 Pgs and 21.5 Pgs and 22.2 Pgs and 22.8 Pgs | Mchc [2]: 31.4 G/Dl and 29.8 G/Dl and 30.2 G/Dl and 32.1 G/Dl and 31.5 G/Dl | Mcv [2]: 69.6 fL and 71.6 fL and 71.5 fL and 69.4 fL and 72.5 fL | Mono [2]: 0.38 10^3/µL and 0.28 10^3/µL and 0.1 10^3/µL and 0.31 10^3/µL | Mpv [2]: 7.6 fL and 6.9 fL and 7.2 fL and 6.4 fL | Neut [2]: 3.03 10^3/µL and 1.68 10^3/µL and 2.26 10^3/µL and 1.88 10^3/µL and 0.86 10^3/µL | Plt [2]: 347 10^3/µL and 388 10^3/µL and 304 10^3/µL and 339 10^3/µL and 367 10^3/µL | Rbc [2]: 6.68 10^6/µL and 6.09 10^6/µL and 5.43 10^6/µL and 5.88 10^6/µL and 5.74 10^6/µL | Rdw [2]: 11.4% and 12.7% and 10.8% and 12.3% and 12.2% | Wbc [2]: 6.07 10^3/µL and 4.69 10^3/µL and 3.69 10^3/µL and 5.83 10^3/µL and 3.99 10^3/µL | lymphocytes in the blood [3]: mildly elevated | monocytes in the blood [3]: mildly elevated | Baso [4]: 0.01333 10^3/µL | Eos [4]: 0.09889 10^3/µL | Hct [4]: 41.4111% | Hgb [4]: 13.2333 G/Dl | Lymp [4]: 3.343 10^3/µL | Mch [4]: 23.5333 Pgs | Mchc [4]: 31.9611 G/Dl | Mcv [4]: 73.75 fL | Mono [4]: 0.2572 10^3/µL | Mpv [4]: 7.506 fL | Neut [4]: 2.007 10^3/µL | Plt [4]: 319.5 10^3/µL | Rbc [4]: 5.621 10^6/µL | Rdw [4]: 12.4556% | Wbc [4]: 5.718 10^3/µL | Baso [5]: 0.01167 10^3/µL | Eos [5]: 0.09 10^3/µL | Hct [5]: 40.5389% | Hgb [5]: 13.0722 G/Dl | Lymp [5]: 2.497 10^3/µL | Mch [5]: 23.6944 Pgs | Mchc [5]: 32.2333 G/Dl
